Test results reported in publication PMC8286840, “Identifying SARS-CoV-2 antiviral compounds by screening for small molecule inhibitors of Nsp3 papain-like protease” (Biochemical Journal, 2021).
Structures can show the parent of a compound that is named as a salt. Where two headings read alike, the source gives them in different places.

What was measured:
[1] = target: T1, SARS-CoV-2 PLpro (nsp3 1564–1878) (Severe acute respiratory syndrome coronavirus 2, UniProt P0DTD1); assay: biochemical; parameters: FRET-quenched peptide (Pro3) cleavage by PLpro, 10 min pre-incubation, slope over 20 min, normalised to no-compound control; conditions: high concentration screen, read-out: % of control remaining
[2] = target: T1, SARS-CoV-2 PLpro (nsp3 1564–1878); assay: biochemical; parameters: FRET-quenched peptide (Pro3) cleavage by PLpro, 10 min pre-incubation, slope over 20 min, normalised to no-compound control; conditions: low concentration screen, read-out: % of control remaining

C[C@@H](C(=O)Nc1ccc(Cl)cc1)[C@H]1CC[C@@H](c2ccnc3ccc(F)cc32)CC1 [Linrodostat]
remaining activity at 3.75 µM ([1]; Well no.=8267): 99.1%
remaining activity at 1.25 µM ([2]; Well no.=8267): 97.9%

CCC[S+]([O-])c1ccc2[nH]c(NC(=O)OC)nc2c1 (stereo not drawn) [Ricobendazole]
remaining activity at 3.75 µM ([1]; Well no.=2021): 106%
remaining activity at 1.25 µM ([2]; Well no.=2021): 103%

FC(F)c1nc2ccccc2n1-c1nc(N2CCOCC2)nc(N2CCOCC2)n1 [ZSTK474]
remaining activity at 3.75 µM ([1]; Well no.=4623): 106%
remaining activity at 1.25 µM ([2]; Well no.=4623): 102%

Nc1nc(=O)[nH]cc1F [Flucytosine (Ancobon)]
remaining activity at 3.75 µM ([1]; Well no.=5335): 101%
remaining activity at 1.25 µM ([2]; Well no.=5335): 94.7%

CC(=O)OCC(=O)[C@@]12N=C(C)O[C@@H]1C[C@H]1[C@@H]3CCC4=CC(=O)C=C[C@]4(C)[C@H]3[C@@H](O)C[C@@]12C [Deflazacort]
remaining activity at 3.75 µM ([1]; Well no.=5566): 104%
remaining activity at 3.75 µM ([1]; Well no.=7613): 97.5%
remaining activity at 1.25 µM ([2]; Well no.=5566): 103%
remaining activity at 1.25 µM ([2]; Well no.=7613): 102%

C=CCc1ccc(O)c(-c2cc(CC=C)ccc2O)c1 [Magnolol]
remaining activity at 3.75 µM ([1]; Well no.=3659): 98.1%
remaining activity at 1.25 µM ([2]; Well no.=3659): 96.1%

CC(C)C[C@H]1C(=O)N2CCC[C@H]2[C@]2(O)O[C@](NC(=O)[C@@H]3C=C4c5cccc6[nH]c(Br)c(c56)C[C@H]4N(C)C3)(C(C)C)C(=O)N12 [Bromocriptine (mesylate)]
remaining activity at 3.75 µM ([1]; Well no.=6891): 96.2%
remaining activity at 1.25 µM ([2]; Well no.=6891): 97.5%

CC(=O)OCC(=O)[C@@]1(O)[C@H](C)C[C@H]2[C@@H]3CCC4=CC(=O)C=C[C@]4(C)[C@@]3(F)[C@@H](O)C[C@@]21C [Dexamethasone acetate]
remaining activity at 3.75 µM ([1]; Well no.=5357): 98%
remaining activity at 1.25 µM ([2]; Well no.=5357): 99.3%

CC(C)Cc1ccc(CC(=O)O)cc1 [Ibufenac]
remaining activity at 3.75 µM ([1]; Well no.=5479): 109%
remaining activity at 1.25 µM ([2]; Well no.=5479): 105%

Oc1ccccc1O [Pyrocatechol]
remaining activity at 3.75 µM ([1]; Well no.=190): 98%
remaining activity at 1.25 µM ([2]; Well no.=190): 101%

N[C@@H](CCl)C(=O)O [beta-Chloro-L-alanine hydrochloride]
remaining activity at 3.75 µM ([1]; Well no.=142): 105%
remaining activity at 1.25 µM ([2]; Well no.=142): 103%

CCOC(=O)n1ccn(C)c1=S [Carbimazole]
remaining activity at 3.75 µM ([1]; Well no.=5124): 105%
remaining activity at 1.25 µM ([2]; Well no.=5124): 104%

O=c1[nH]c(=O)c2nc[nH]c2[nH]1 [Xanthine]
remaining activity at 3.75 µM ([1]; Well no.=7203): 96.5%
remaining activity at 1.25 µM ([2]; Well no.=7203): 97.4%

CN1CCN(C2=Nc3ccccc3Oc3ccc(Cl)cc32)CC1 [Loxapine (succinate)]
remaining activity at 3.75 µM ([1]; Well no.=6172): 87.5%
remaining activity at 1.25 µM ([2]; Well no.=6172): 93.4%

CCCCCCCCCCCCCCCCOP(=O)([O-])OCC[N+](C)(C)C [Miltefosine]
remaining activity at 3.75 µM ([1]; Well no.=1767): 100%
remaining activity at 1.25 µM ([2]; Well no.=1767): 101%

CCC1(c2ccccc2)C(=O)NCNC1=O [Primidone]
remaining activity at 3.75 µM ([1]; Well no.=1443): 95.8%
remaining activity at 1.25 µM ([2]; Well no.=1443): 101%

C[C@@H]1O[C@@H](OC[C@H]2O[C@@H](Oc3c(-c4ccc(O)c(O)c4)oc4cc(O)cc(O)c4c3=O)[C@H](O)[C@@H](O)[C@@H]2O)[C@H](O)[C@H](O)[C@H]1O [Rutin]
remaining activity at 3.75 µM ([1]; Well no.=3711): 106%
remaining activity at 1.25 µM ([2]; Well no.=3711): 103%

C[C@]12CCC(=O)C=C1CC[C@@H]1[C@@H]2CC[C@@]2(C)[C@H]1CC[C@]2(O)C(=O)CO [Cortodoxone]
remaining activity at 3.75 µM ([1]; Well no.=7330): 98%
remaining activity at 1.25 µM ([2]; Well no.=7330): 98.9%

COc1ccc2c3c1O[C@H]1C[C@@H](O)C=C[C@@]31CCN(C)C2 [Galanthamine]
remaining activity at 3.75 µM ([1]; Well no.=1707): 101%
remaining activity at 1.25 µM ([2]; Well no.=1707): 105%

CC(C)c1cc(C(C)C)c(CC(=O)NS(=O)(=O)Oc2c(C(C)C)cccc2C(C)C)c(C(C)C)c1 [Avasimibe]
remaining activity at 3.75 µM ([1]; Well no.=5705): 96.6%
remaining activity at 3.75 µM ([1]; Well no.=8336): 88%
remaining activity at 1.25 µM ([2]; Well no.=5705): 99.6%
remaining activity at 1.25 µM ([2]; Well no.=8336): 89.6%

C[C@@H](NCCc1ccc(O)cc1)[C@@H](O)c1ccc(O)cc1 (racemic) [Ritodrine (hydrochloride)]
remaining activity at 3.75 µM ([1]; Well no.=6427): 91.3%
remaining activity at 1.25 µM ([2]; Well no.=6427): 100%

C[N+](C)(C)CCOC(N)=O [Carbachol]
remaining activity at 3.75 µM ([1]; Well no.=32): 99%
remaining activity at 1.25 µM ([2]; Well no.=32): 95.6%

COc1nccnc1NS(=O)(=O)c1ccc(N)cc1 [Sulfalene]
remaining activity at 3.75 µM ([1]; Well no.=8228): 85.7%
remaining activity at 1.25 µM ([2]; Well no.=8228): 103%

Clc1ccc2nsnc2c1NC1=NCCN1 [Tizanidine (hydrochloride)]
remaining activity at 3.75 µM ([1]; Well no.=6612): 96%
remaining activity at 1.25 µM ([2]; Well no.=6612): 105%

O=C(O)c1cc(=O)[nH]c(=O)[nH]1 [Orotic acid (6-Carboxyuracil)]
remaining activity at 3.75 µM ([1]; Well no.=8146): 98.3%
remaining activity at 1.25 µM ([2]; Well no.=8146): 105%

COC(=O)Nc1ccc(-c2nc(N3CCOCC3)c3cnn(C4CCN(Cc5cccnc5)CC4)c3n2)cc1 [WYE-687]
remaining activity at 3.75 µM ([1]; Well no.=4645): 103%
remaining activity at 1.25 µM ([2]; Well no.=4645): 104%

C[C@@H]1C/C=C/C=C/C=C/C=C/[C@H](O[C@@H]2O[C@H](C)[C@@H](O)[C@H](N)[C@@H]2O)C[C@@H]2O[C@](O)(C[C@@H](O)C[C@H]3O[C@@H]3/C=C/C(=O)O1)C[C@H](O)[C@H]2C(=O)O [Pimaricin]
remaining activity at 3.75 µM ([1]; Well no.=3703): 102%
remaining activity at 1.25 µM ([2]; Well no.=3703): 96.5%

C[C@@H]1[C@H](O)[C@@H](C)/C=C/C=C/C=C/C=C/C=C/C=C/C=C/[C@H](O[C@@H]2O[C@H](C)[C@@H](O)[C@H](N)[C@@H]2O)C[C@@H]2O[C@](O)(C[C@@H](O)C[C@@H](O)[C@H](O)CC[C@@H](O)C[C@@H](O)CC(=O)O[C@H]1C)C[C@H](O)[C@H]2C(=O)O [Amphotericin B]
remaining activity at 3.75 µM ([1]; Well no.=3470): 98.9%
remaining activity at 1.25 µM ([2]; Well no.=3470): 101%

O=C(O)CCc1nc(-c2ccccc2)c(-c2ccccc2)o1 [Oxaprozin]
remaining activity at 3.75 µM ([1]; Well no.=1090): 104%
remaining activity at 1.25 µM ([2]; Well no.=1090): 102%

CCCN[C@@H]1CCc2nc(N)sc2C1 [Dexpramipexole (dihydrochloride)]
remaining activity at 3.75 µM ([1]; Well no.=7181): 93.6%
remaining activity at 1.25 µM ([2]; Well no.=7181): 98.2%

O=C(O)CC(O)C(=O)O (stereo not drawn) [Malic acid]
remaining activity at 3.75 µM ([1]; Well no.=6637): 110%
remaining activity at 1.25 µM ([2]; Well no.=6637): 106%

CC(=O)CCC(=O)O [Levulinic acid]
remaining activity at 3.75 µM ([1]; Well no.=6545): 98%
remaining activity at 1.25 µM ([2]; Well no.=6545): 101%

CC1=C(/C=C/C(C)=C/C=C/C(C)=C/C=C/C=C(C)/C=C/C=C(C)/C=C/C2=C(C)C(=O)CCC2(C)C)C(C)(C)CCC1=O [Canthaxanthin]
remaining activity at 3.75 µM ([1]; Well no.=1791): 104%
remaining activity at 3.75 µM ([1]; Well no.=4147): 100%
remaining activity at 1.25 µM ([2]; Well no.=1791): 105%
remaining activity at 1.25 µM ([2]; Well no.=4147): 93.8%
